Measured values as given in ChEMBL document CHEMBL5154863, “Design and synthesis of quinolinium-based derivatives targeting FtsZ for antibacterial evaluation and mechanistic study” (Eur J Med Chem, 2022).
Values after ≈ are worked out from the molar mass of the structure shown. Active and inactive are the calls of the source. No cut-off for these calls is given here.

Key:
[1] = test system: Staphylococcus aureus; assay: microbe, parasite or virus in culture; conditions: ATCC BAA41, 24 h
Description: Synergistic antibacterial activity against methicillin-resistant Staphylococcus aureus ATCC BAA41 assessed as inhibition of bacterial growth incubated for 24 hrs in presence of (E)-2-(4-(dimethylamino)styryl)-1-methyl-4-(4-methylpiperidin-1-yl)quinolin-1-ium iodide by checker board assay

[2] = test system: Staphylococcus aureus; assay: microbe, parasite or virus in culture; conditions: ATCC BAA41, 24 h; remark: listed apart in the source
Description: Synergistic antibacterial activity against methicillin-resistant Staphylococcus aureus ATCC BAA41 assessed as inhibition of bacterial growth incubated for 24 hrs in presence of (E)-2-(4-(dimethylamino)styryl)-1-methyl-4-(piperidin-1-yl)quinolin-1-ium iodide by checker board assay

[3] = test system: Staphylococcus aureus; assay: microbe, parasite or virus in culture; conditions: ATCC BAA41, 24 h; remark: listed apart in the source
Description: Synergistic antibacterial activity against methicillin-resistant Staphylococcus aureus ATCC BAA41 assessed as inhibition of bacterial growth incubated for 24 hrs in presence of (E)-2-(4-(dimethylamino)styryl)-1-methyl-4-(pentylamino)quinolin-1-ium iodide by checker board assay

[4] = test system: Staphylococcus aureus; assay: Antibacterial activity against methicillin-resistant Staphylococcus aureus ATCC BAA41 assessed as inhibition of bacterial growth incubated for 24 hrs by checker board assay; assay type: functional
[5] = test system: Staphylococcus aureus; assay: microbe, parasite or virus in culture; conditions: ATCC BAA41, 24 h; remark: listed apart in the source
Description: Synergistic antibacterial activity against methicillin-resistant Staphylococcus aureus ATCC BAA41 assessed as inhibition of bacterial growth incubated for 24 hrs in presence of (E)-4-(4-(dimethylamino)styryl)-1-methyl-2-(4-methylpiperidin-1-yl)quinolin-1-ium iodide by checker board assay

[6] = test system: Enterococcus faecium; assay: Antibacterial activity against vancomycin-resistant Enterococcus faecium clinical isolate assessed as inhibition of bacterial growth incubated for 20 to 24 hrs by broth micro dilution method; assay type: functional; conditions: time 20-24 hrs
[7] = test system: Staphylococcus aureus; assay: Antibacterial activity against methicillin-resistant Staphylococcus aureus ATCC 43300 assessed as inhibition of bacterial growth incubated for 20 to 24 hrs by broth micro dilution method; assay type: functional; conditions: time 20-24 hrs
[8] = test system: Enterococcus faecium; assay: Antibacterial activity against Enterococcus faecium ATCC 49624 assessed as inhibition of bacterial growth incubated for 20 to 24 hrs by broth micro dilution method; assay type: functional; conditions: time 20-24 hrs
[9] = test system: Staphylococcus epidermidis; assay: Antibacterial activity against Staphylococcus epidermidis ATCC 12228 assessed as inhibition of bacterial growth incubated for 20 to 24 hrs by broth micro dilution method; assay type: functional; conditions: time 20-24 hrs
[10] = test system: Staphylococcus aureus; assay: Antibacterial activity against methicillin-resistant Staphylococcus aureus ATCC BAA-1720 assessed as inhibition of bacterial growth incubated for 20 to 24 hrs by broth micro dilution method; assay type: functional; conditions: time 20-24 hrs
[11] = test system: Escherichia coli; assay: Antibacterial activity against Escherichia coli ATCC 25922 assessed as inhibition of bacterial growth incubated for 20 to 24 hrs by broth micro dilution method; assay type: functional; conditions: time 20-24 hrs
[12] = test system: Staphylococcus aureus; assay: Antibacterial activity against methicillin-resistant Staphylococcus aureus ATCC 33592 assessed as inhibition of bacterial growth incubated for 20 to 24 hrs by broth micro dilution method; assay type: functional; conditions: time 20-24 hrs
[13] = test system: Enterococcus faecium; assay: Antibacterial activity against vancomycin resistant Enterococcus faecium ATCC 700221 assessed as inhibition of bacterial growth incubated for 20 to 24 hrs by broth micro dilution method; assay type: functional; conditions: time 20-24 hrs
[14] = test system: Staphylococcus aureus; assay: Induction of drug resistance against Staphylococcus aureus ATCC 29213 assessed as fold increase in MIC after 16 passage; assay type: functional
[15] = test system: Klebsiella pneumoniae; assay: Antibacterial activity against NDM-1 expressing Klebsiella pneumoniae ATCC BAA 2470 assessed as inhibition of bacterial growth incubated for 20 to 24 hrs by broth micro dilution method; assay type: functional; conditions: time 20-24 hrs
[16] = test system: Escherichia coli; assay: Antibacterial activity against NDM-1 expressing Escherichia coli ATCC BAA2469 assessed as inhibition of bacterial growth incubated for 20 to 24 hrs by broth micro dilution method; assay type: functional; conditions: time 20-24 hrs
[17] = test system: Bacillus subtilis; assay: Antibacterial activity against Bacillus subtilis CMCC (B) 63501 assessed as inhibition of bacterial growth incubated for 20 to 24 hrs by broth micro dilution method; assay type: functional; conditions: time 20-24 hrs
[18] = test system: Staphylococcus aureus; assay: Antibacterial activity against Staphylococcus aureus ATCC 29213 assessed as inhibition of bacterial growth incubated for 20 to 24 hrs by broth micro dilution method; assay type: functional; conditions: time 20-24 hrs
[19] = test system: Acinetobacter baumannii; assay: Antibacterial activity against multi-drug resistant Acinetobacter baumannii ATCC 19606 assessed as inhibition of bacterial growth incubated for 20 to 24 hrs by broth micro dilution method; assay type: functional; conditions: time 20-24 hrs
[20] = test system: Escherichia coli; assay: Antibacterial activity against Escherichia coli ATCC 8739 assessed as inhibition of bacterial growth incubated for 20 to 24 hrs by broth micro dilution method; assay type: functional; conditions: time 20-24 hrs
[21] = test system: Pseudomonas aeruginosa; assay: Antibacterial activity against […] Pseudomonas aeruginosa ATCC 27853 assessed as inhibition of bacterial growth incubated for 20 to 24 hrs by broth micro dilution method; assay type: functional; conditions: time 20-24 hrs
[22] = test system: Enterococcus faecalis; assay: Antibacterial activity against Enterococcus faecalis ATCC 29212 assessed as inhibition of bacterial growth incubated for 20 to 24 hrs by broth micro dilution method; assay type: functional; conditions: time 20-24 hrs
[23] = test system: Staphylococcus aureus; assay: Antibacterial activity against vancomycin-intermediate Staphylococcus aureus Mu50 assessed as inhibition of bacterial growth incubated for 20 to 24 hrs by broth micro dilution method; assay type: functional; conditions: time 20-24 hrs
[24] = test system: Staphylococcus aureus; assay: Induction of morphological changes in Staphylococcus aureus ATCC 29213 assessed as enlargement of cell size at 0.5 times MIC for 4 hrs by microscopic analysis; assay type: functional, organism-based
[25] = Ratio of MBC for bactericidal activity against Staphylococcus aureus ATCC 43300 to MIC for antibacterial activity against Staphylococcus aureus ATCC 43300; assay type: functional
[26] = test system: Staphylococcus aureus; assay: Antibacterial activity against methicillin-resistant Staphylococcus aureus ATCC BAA41 assessed as fractional inhibitory concentration index incubated for 24 hrs by checker board assay; assay type: functional
[27] = test system: Staphylococcus aureus; assay: Bactericidal activity against Staphylococcus aureus ATCC 29213 assessed as inhibition of bacterial growth incubated for 24 hrs by resazurin dye based microtiter plate assay; assay type: functional
[28] = test system: Bacillus subtilis; assay: Bactericidal activity against Bacillus subtilis CMCC (B) 63501 assessed as inhibition of bacterial growth incubated for 24 hrs by resazurin dye based microtiter plate assay; assay type: functional
[29] = target: T1, Cell division protein FtsZ (Staphylococcus aureus) (UniProt P0A031); assay: Binding affinity to Staphylococcus aureus FtsZ assessed as decrease in random coil structure at 8 ug/ml incubated for 30 mins by circular dichroism method; conditions: dose 8.0 µg/ml
T1 sequence (whole entry): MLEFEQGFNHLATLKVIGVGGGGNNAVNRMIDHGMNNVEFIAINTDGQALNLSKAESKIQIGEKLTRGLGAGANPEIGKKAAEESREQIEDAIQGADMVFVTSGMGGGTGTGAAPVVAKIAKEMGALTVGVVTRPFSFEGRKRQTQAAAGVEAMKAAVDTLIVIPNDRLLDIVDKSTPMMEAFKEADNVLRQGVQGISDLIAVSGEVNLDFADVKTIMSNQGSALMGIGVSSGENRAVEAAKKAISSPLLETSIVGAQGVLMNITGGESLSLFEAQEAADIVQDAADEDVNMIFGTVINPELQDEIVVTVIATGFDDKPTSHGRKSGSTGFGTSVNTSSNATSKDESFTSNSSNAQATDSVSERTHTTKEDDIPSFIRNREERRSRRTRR

[30] = test system: Staphylococcus aureus; assay: Bactericidal activity against Staphylococcus aureus ATCC 43300 assessed as inhibition of bacterial growth incubated for 24 hrs by resazurin dye based microtiter plate assay; assay type: functional
[31] = test system: Enterococcus faecium; assay: Bactericidal activity against Enterococcus faecium ATCC 700221 assessed as inhibition of bacterial growth incubated for 24 hrs by resazurin dye based microtiter plate assay; assay type: functional
[32] = test system: Staphylococcus aureus; assay: Synergistic antibacterial activity against methicillin-resistant Staphylococcus aureus ATCC BAA41 assessed as inhibition of bacterial growth incubated for 24 hrs in presence of methicillin by checker board assay; assay type: functional
[33] = target: T1, Cell division protein FtsZ (Staphylococcus aureus); assay: Binding affinity to Staphylococcus aureus FtsZ assessed as increase in alpha helix structure at 8 ug/ml incubated for 30 mins by circular dichroism method; conditions: dose 8.0 µg/ml
[34] = test system: Bacillus subtilis; assay: Induction of morphological changes in Bacillus subtilis CMCC (B) 63501 assessed as elongation of bacterial cell at 0.5 times MIC for 4 hrs (reference value: 3 to 5 um) by microscopic analysis; assay type: functional
[35] = target: T2, Cell division protein FtsZ (Staphylococcus aureus, UniProt P0A031); assay: Binding affinity to Staphylococcus aureus FtsZ assessed as dissociation constant by isothermal titration calorimetry
T2 sequence (P0A031 whole entry): T1 sequence (whole entry)

[36] = Ratio of MBC for bactericidal activity against Bacillus subtilis CMCC (B) 63501 to MIC for antibacterial activity against Bacillus subtilis CMCC (B) 63501; assay type: functional
[37] = Ratio of MBC for bactericidal activity against Staphylococcus aureus ATCC 29213 to MIC for antibacterial activity against Staphylococcus aureus ATCC 29213; assay type: functional
[38] = Ratio of MBC for bactericidal activity against Enterococcus faecium ATCC 700221 to MIC for antibacterial activity against Enterococcus faecium ATCC 700221; assay type: functional
[39] = target: T1, Cell division protein FtsZ (Staphylococcus aureus); assay: Binding affinity to Staphylococcus aureus FtsZ assessed as decrease in beta turn structure at 8 ug/ml incubated for 30 mins by circular dichroism method; conditions: dose 8.0 µg/ml
[40] = target: T1, Cell division protein FtsZ (Staphylococcus aureus); assay: Induction of Staphylococcus aureus FtsZ polymerization expressed in Escherichia coli BL21 (DE3) assessed as increase in absorbance at 2 to 8 ug/ml in presence of GTP by microplate reader method; conditions: dose 2-8 µg/ml, DDE = dose-dependent effect
[41] = target: T1, Cell division protein FtsZ (Staphylococcus aureus); assay: Binding affinity to Staphylococcus aureus FtsZ assessed as equilibrium binding constant by isothermal titration calorimetry
[42] = target: T1, Cell division protein FtsZ (Staphylococcus aureus); assay: Binding affinity to Staphylococcus aureus FtsZ assessed as decrease in other structure at 8 ug/ml incubated for 30 mins by circular dichroism method; conditions: dose 8.0 µg/ml

Row | SMILES | MIC [4] [µg/mL] | MIC [6] [µg/mL] | MIC [7] [µg/mL] | MIC [8] [µg/mL] | MIC [9] [µg/mL] | MIC [10] [µg/mL] | MIC [11] [µg/mL] | MIC [12] [µg/mL] | MIC [13] [µg/mL] | MIC [15] [µg/mL] | MIC [16] [µg/mL] | MIC [17] [µg/mL] | MIC [18] [µg/mL] | MIC [19] [µg/mL] | MIC [20] [µg/mL] | MIC [21] [µg/mL] | MIC [22] [µg/mL] | MIC [23] [µg/mL] | other results
1 | COc1cccc(OC)c1C(=O)N[C@@H]1C(=O)N2[C@@H]1SC(C)(C)[C@@H]2C(=O)O [METHICILLIN] | 1020 |  |  |  |  |  |  |  |  |  |  |  |  |  |  |  |  |  | MIC [1]: 64 µg/mL (≈ 168 µM); MIC [2]: 128 µg/mL (≈ 336 µM); MIC [3]: 256 µg/mL (≈ 673 µM); MIC [5]: 64 µg/mL (≈ 168 µM)
2 | CO[C@H]1/C=C/O[C@@]2(C)Oc3c(C)c(O)c4c(O)c(c(/C=N/N5CCN(C)CC5)c(O)c4c3C2=O)NC(=O)/C(C)=C\C=C\[C@H](C)[C@H](O)[C@@H](C)[C@@H](O)[C@@H](C)[C@H](OC(C)=O)[C@@H]1C [RIFAMPIN] |  | 8 (≈ 9.72 µM) | < 0.125 | < 0.125 | 1 (≈ 1.22 µM) | < 0.125 | 2 (≈ 2.43 µM) | > 64 | < 0.125 | > 64 | > 64 | 0.125 (≈ 0.152 µM) | 0.5 (≈ 0.608 µM) | > 64 | 8 (≈ 9.72 µM) | > 64 | 0.125 (≈ 0.152 µM) | 0.125 (≈ 0.152 µM) | fold change (FC) [14]: 4096
3 | CN(C)c1ccc(/C=C/c2cc(N3CCCCC3)c3ccccc3[n+]2C)cc1.[I-] | 16 | 4 | 1 | 8 | 1 | 2 | 16 | 1 | 1 | > 64 | 64 | 2 | 1 | 64 | 64 | > 64 | 4 | 2 | Activity [24]: Active; Ratio [25]: 4; fractional inhibitory concentration index (FICI) [26]: 0.25; MBC [27]: 8 µg/mL; MBC [28]: 4 µg/mL; Activity [29]: Active; MBC [30]: 4 µg/mL; MBC [31]: 4 µg/mL; MIC [32]: 2 µg/mL; Activity [33]: Active; Activity [34]: 30 um; Kd [35]: 2490 nM; Ratio [36]: 2; Ratio [37]: >4; Ratio [38]: 4; Activity [39]: Active; Activity [40]: Dde; Kb [41]: 2.02 10^5/M; Activity [42]: Active
